In patent US9657062B2, “Ghrelin analogues” (Zealand Pharma A/S, priority 2012, dated 2017):
Where a SMILES comes first, the peptide text is derived from it. [ ]: non-standard residue; d: D form. The star is where a group is joined. Octanoyl = CCCCCCCC(=O)*; Dap = NC[C@H](N)C(=O)O; Octyl = CCCCCCCC*

Key:
[1] = tested on: normal chow-fed C57BL/6J male mice; experiment: Effect on food intake in normal mice (HM-2 automated monitoring); type: in vivo, mouse; conditions: for Accumulated FI at 6h: 300 nmol/kg s.c. once, light phase 0-6 h, modified protocol (food access re-opened 2 h after dosing)
Experimental: Normal chow-fed C57BL/6J male mice were used. The mice were kept in an automated food- and water-intake monitoring system (HM-2) which allows automated on-line measurements of accumulated food intake (FI) and other parameters. Food intake was monitored by the HM-2 system up to 24 h after dosing. The mice were kept 6 per cage, and each dosing group consisted of 6 animals.
In the initial experimental set-up with ghrelin as test compound, animals were allowed free access to food directly after treatment, and the resulting data for food intake are shown in FIG. 1A herein (vide infra).
In order to further investigate the “duration of action” of ghrelin and the other test compounds a new protocol was defined. In the modified protocol the gate to the food chambers was closed prior to dosing with vehicle or test compound and was re-opened 2 hours thereafter. The resulting data for food intake following dosing with ghrelin or vehicle are summarized in FIG. 1B (vide infra), while the corresponding data for food intake following dosing with each of the of the other four test compounds. (Compound 16, 22, 23 or 43 of the invention) or with vehicle are summarized in FIG. 2A (data for monitoring up to 6 hours after dosing) and FIG. 2B (data for monitoring up to 24 hours after dosing).

[2] = biological target: T1, human ghrelin receptor (GHSR1a) (Homo sapiens, UniProt Q92847); experiment: Ghrelin receptor functional assay (Ca2+ induction, Fluo-4, FLIPR) in HEK293 cells stably expressing the human ghrelin receptor; type: cell-based; conditions: HEK293 cell line stably expressing human GHSR1a
T1 construct: expressed in transfected cells; plasmid pIRESneo2dNGFR
T1 sequence (Q92847 whole entry): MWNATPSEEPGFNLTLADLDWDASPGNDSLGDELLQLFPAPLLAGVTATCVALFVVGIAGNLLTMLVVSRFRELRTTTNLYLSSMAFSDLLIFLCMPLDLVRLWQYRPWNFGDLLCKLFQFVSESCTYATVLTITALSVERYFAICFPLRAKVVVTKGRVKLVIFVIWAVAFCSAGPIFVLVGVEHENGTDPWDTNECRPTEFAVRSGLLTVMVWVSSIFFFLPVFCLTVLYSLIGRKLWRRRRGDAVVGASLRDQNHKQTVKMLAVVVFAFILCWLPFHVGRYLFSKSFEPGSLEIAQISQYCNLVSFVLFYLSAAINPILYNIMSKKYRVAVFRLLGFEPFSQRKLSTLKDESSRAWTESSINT
Description: To test activation of the ghrelin receptor, stable cell lines expressing the human ghrelin receptor were produced. In brief, HEK293 cells were used for transfection of the cDNA for human ghrelin receptor cloned into the transfection plasmid pIRESneo2dNGFR. […] The DNA encoding the ghrelin receptor was amplified by PCR using primers also encoding terminal restriction sites for subcloning. The ghrelin receptor was subcloned into a mammalian expression vector containing a neomycin (G418) resistance marker. The fidelity of the DNA encoding the receptor was confirmed by DNA sequencing. HEK293 cells were used for transfection of the ghrelin receptor expression plasmid. The cells were grown according to standard protocol in growth medium and transfected with the plasmids using Lipofectamin (Invitrogen) according to the manufacturer's protocol. […]
The plate with test compounds was pre-warmed before starting the measurements. […] The program measures basal level of fluorescence of Fluo-4 for 10 seconds, adds 100 μl of peptide solution to the cells and measures the change in fluorescence as a consequence of the changes in Ca^2+ concentration in the cells. The output used for calculation of activity was selected to be the maximal response (expressed as a ratio to the basal level. EC50 values) and maximal response values were determined based on these values.

Row | SMILES | Accumulated FI at 6h [1] | other results
1 | CCCCCCCCCCCCCCCC(=O)NCCCC[C@H](NC(=O)[C@H](CO)NC(=O)[C@H](CCC(=O)O)NC(=O)[C@H](CCCCN)NC(=O)[C@H](CCCNC(=N)N)NC(=O)[C@H](CCC(N)=O)NC(=O)[C@H](CCC(N)=O)NC(=O)[C@@H](NC(=O)[C@H](CCCNC(=N)N)NC(=O)[C@H](CCC(N)=O)NC(=O)[C@H](Cc1c[nH]cn1)NC(=O)[C@H](CCC(=O)O)NC(=O)[C@@H]1CCCN1C(=O)[C@H](CO)NC(=O)[C@H](CC(C)C)NC(=O)[C@H](Cc1ccccc1)NC(=O)[C@H](COCCCCCCCC)NC(=O)[C@H](CO)NC(=O)[C@@H]1CCCN1)C(C)C)C(=O)N[C@@H](CCCCN)C(=O)N1CCC[C@H]1C(=O)N1CCC[C@H]1C(=O)N[C@@H](C)C(=O)N[C@@H](CCCCN)C(=O)N[C@@H](CC(C)C)C(=O)N[C@@H](CCC(N)=O)C(=O)N1CCC[C@H]1C(=O)N[C@@H](CCCNC(=N)N)C(=O)O [Compound 16] | 0.65 ± 0.1 g | –
2 | CCCCCCCC(=O)NC[C@H](NC(=O)[C@H](CO)NC(=O)[C@@H]1CCCN1)C(=O)N[C@@H](Cc1ccccc1)C(=O)N[C@@H](CC(C)C)C(=O)N[C@@H](CO)C(=O)N1CCC[C@H]1C(=O)N[C@@H](Cc1ccc(O)cc1)C(N)=O [Compound 42, H-PS-Dap(N-octanoyl)-FLSPY-NH2] (H-PS[Dap](Octanoyl)FLSPY-NH2) | 0.2 ± 0.08 g | –
3 | CCCCCCCCOC[C@H](NC(=O)[C@H](CO)NC(=O)[C@@H]1CCCN1)C(=O)N[C@@H](Cc1ccccc1)C(=O)N[C@@H](CC(C)C)C(=O)N[C@@H](CO)C(=O)N1CCC[C@H]1C(=O)N[C@@H](CCC(=O)O)C(=O)N[C@@H](Cc1c[nH]cn1)C(=O)N[C@@H](CO)C(=O)N[C@@H](CCCNC(=N)N)C(=O)N[C@H](C(=O)N[C@@H](CO)C(=O)N[C@@H](CO)C(=O)N[C@@H](CCCNC(=N)N)C(=O)N1CCC[C@H]1C(=O)N[C@@H](CCC(=O)O)C(=O)N[C@@H](CO)C(=O)N[C@@H](CO)C(=O)N[C@@H](CO)C(=O)N1CCC[C@H]1C(=O)N1CCC[C@H]1C(=O)N[C@@H](C)C(=O)N[C@@H](CCCCN)C(=O)N[C@@H](CC(C)C)C(=O)N[C@@H](CO)C(=O)N1CCC[C@H]1C(=O)N[C@@H](CCCNC(=N)N)C(N)=O)C(C)C [Compound 49] (H-PSS(Octyl)FLSPEHSRVSSRPESSSPPAKLSPR-NH2) | 0.6 ± 0.09 g | –
4 | CCCCCCCCOC[C@H](NC(=O)[C@H](CO)NC(=O)[C@@H]1CCCN1)C(=O)N[C@@H](Cc1ccccc1)C(=O)N[C@@H](CC(C)C)C(=O)N[C@@H](CO)C(=O)N1CCC[C@H]1C(=O)N[C@@H](CCC(=O)O)C(=O)N[C@@H](Cc1c[nH]cn1)C(=O)N[C@@H](CCC(N)=O)C(=O)N[C@@H](CCCNC(=N)N)C(=O)N[C@H](C(=O)N[C@@H](CCC(N)=O)C(=O)N[C@@H](CCCNC(=N)N)C(=O)N[C@@H](CCCCN)C(=O)N[C@@H](CCC(=O)O)C(=O)N[C@@H](CO)C(=O)N[C@@H](CCCCN)C(=O)N[C@@H](CCCCN)C(=O)N1CCC[C@H]1C(=O)N1CCC[C@H]1C(=O)N[C@@H](C)C(=O)N[C@@H](CCCCN)C(=O)N[C@@H](CC(C)C)C(=O)N[C@@H](CCC(N)=O)C(=O)N1CCC[C@H]1C(=O)N[C@@H](CCCNC(=N)N)C(N)=O)C(C)C [Compound 38] (H-PSS(Octyl)FLSPEHQRVQRKESKKPPAKLQPR-NH2) | – | EC50 [2]: 0.33 nM
5 | CCCCCCCC(=O)NC[C@H](NC(=O)[C@H](CO)NC(=O)[C@@H]1CCCN1)C(=O)N[C@@H](Cc1ccccc1)C(=O)N[C@@H](CC(C)C)C(=O)N[C@@H](CO)C(=O)N1CCC[C@H]1C(=O)N[C@@H](CCC(=O)O)C(=O)N[C@@H](Cc1c[nH]cn1)C(=O)N[C@@H](CCC(N)=O)C(=O)N[C@@H](CCCNC(=N)N)C(=O)N[C@H](C(=O)N[C@@H](CCC(N)=O)C(=O)N[C@@H](CCC(N)=O)C(=O)N[C@@H](CCCNC(=N)N)C(=O)N[C@@H](CCCCN)C(=O)N[C@@H](CCC(=O)O)C(=O)N[C@@H](CO)C(=O)N[C@@H](CCCCN)C(=O)N[C@@H](CCCCN)C(=O)N1CCC[C@H]1C(=O)N1CCC[C@H]1C(=O)N[C@@H](C)C(=O)N[C@@H](CCCCN)C(=O)N[C@@H](CC(C)C)C(=O)N[C@@H](CCC(N)=O)C(=O)N1CCC[C@H]1C(=O)N[C@@H](CCCNC(=N)N)C(N)=O)C(C)C [Compound 22] | 1.87 ± 0.23 g | Effects on FI during the dark period ([1]; 300 nmol/kg s.c., modified protocol, 0-24 h monitoring (FIG. 2B)): significant effects
6 | CCCCCCCCOC[C@H](NC(=O)[C@H](CO)NC(=O)[C@@H]1CCCN1)C(=O)N[C@@H](Cc1ccccc1)C(=O)N[C@@H](CC(C)C)C(=O)N[C@@H](CO)C(=O)N1CCC[C@H]1C(=O)N[C@@H](CCC(=O)O)C(=O)N[C@@H](Cc1c[nH]cn1)C(=O)N[C@@H](CO)C(=O)N[C@@H](CCCNC(=N)N)C(=O)N[C@H](C(=O)N[C@@H](CO)C(=O)N[C@@H](CO)C(=O)N[C@@H](CCCNC(=N)N)C(=O)N[C@@H](CCCCN)C(=O)N[C@@H](CCC(=O)O)C(=O)N[C@@H](CO)C(=O)N[C@@H](CO)C(=O)N[C@@H](CCCCN)C(=O)N1CCC[C@H]1C(=O)N1CCC[C@H]1C(=O)N[C@@H](C)C(=O)N[C@@H](CCCCN)C(=O)N[C@@H](CC(C)C)C(=O)N[C@@H](CO)C(=O)N1CCC[C@H]1C(=O)N[C@@H](CCCNC(=N)N)C(N)=O)C(C)C [Compound 45] (H-PSS(Octyl)FLSPEHSRVSSRKESSKPPAKLSPR-NH2) | 0.38 ± 0.13 g | –
7 | CCCCCCCCOC[C@H](NC(=O)[C@H](CO)NC(=O)[C@@H]1CCCN1)C(=O)N[C@@H](Cc1ccccc1)C(=O)N[C@@H](CC(C)C)C(=O)N[C@@H](CO)C(=O)N1CCC[C@H]1C(=O)N[C@@H](CCC(=O)O)C(=O)N[C@@H](Cc1c[nH]cn1)C(=O)N[C@@H](CO)C(=O)N[C@@H](CCCNC(=N)N)C(=O)N1CCC[C@H]1C(=O)N[C@@H](CO)C(=O)N[C@@H](CO)C(=O)N[C@@H](CCCNC(=N)N)C(N)=O [Compound 48] (H-PSS(Octyl)FLSPEHSRPSSR-NH2) | 0 ± 0 g | –
8 | CCCCCCCC(=O)OC[C@H](NC(=O)[C@H](CO)NC(=O)CN)C(=O)N[C@@H](Cc1ccccc1)C(=O)N[C@@H](CC(C)C)C(=O)N[C@@H](CO)C(=O)N1CCC[C@H]1C(=O)N[C@@H](CCC(=O)O)C(=O)N[C@@H](Cc1c[nH]cn1)C(=O)N[C@@H](CCC(N)=O)C(=O)N[C@@H](CCCNC(=N)N)C(=O)N[C@H](C(=O)N[C@@H](CCC(N)=O)C(=O)N[C@@H](CCC(N)=O)C(=O)N[C@@H](CCCNC(=N)N)C(=O)N[C@@H](CCCCN)C(=O)N[C@@H](CCC(=O)O)C(=O)N[C@@H](CO)C(=O)N[C@@H](CCCCN)C(=O)N[C@@H](CCCCN)C(=O)N1CCC[C@H]1C(=O)N1CCC[C@H]1C(=O)N[C@@H](C)C(=O)N[C@@H](CCCCN)C(=O)N[C@@H](CC(C)C)C(=O)N[C@@H](CCC(N)=O)C(=O)N1CCC[C@H]1C(=O)N[C@@H](CCCNC(=N)N)C(=O)O)C(C)C [Compound 1, reference compound] | – | Effect on food intake (FI) ([1]; 300 nmol/kg s.c., access to food delayed for 2 h after administration (FIG. 1B)): essentially lost; Food intake (FI) compared to PBS treated controls ([1]; 300 nmol/kg s.c., free access to food immediately after dosing (FIG. 1A)): increased FI
9 | CCCCCCCCOC[C@H](NC(=O)[C@H](CO)NC(=O)[C@@H]1CCCN1)C(=O)N[C@@H](Cc1ccccc1)C(=O)N[C@@H](CC(C)C)C(=O)N[C@@H](CO)C(=O)N1CCC[C@H]1C(=O)N[C@@H](CCC(=O)O)C(=O)N[C@@H](Cc1c[nH]cn1)C(=O)N[C@@H](CO)C(=O)N[C@@H](CCCNC(=N)N)C(=O)N[C@H](C(=O)N[C@@H](CO)C(=O)N[C@@H](CO)C(=O)N[C@@H](CCCNC(=N)N)C(=O)N[C@@H](CCCCN)C(=O)N[C@@H](CCC(=O)O)C(=O)N[C@@H](CO)C(=O)N[C@@H](CCCCN)C(=O)N[C@@H](CO)C(=O)N1CCC[C@H]1C(=O)N1CCC[C@H]1C(=O)N[C@@H](C)C(=O)N[C@@H](CCCCN)C(=O)N[C@@H](CC(C)C)C(=O)N[C@@H](CO)C(=O)N1CCC[C@H]1C(=O)N[C@@H](CCCNC(=N)N)C(N)=O)C(C)C [Compound 46] (H-PSS(Octyl)FLSPEHSRVSSRKESKSPPAKLSPR-NH2) | 1.68 ± 0.2 g | –
10 | CC(C)C[C@H](NC(=O)[C@H](CCCCN)NC(=O)[C@H](C)NC(=O)[C@@H]1CCCN1C(=O)[C@@H]1CCCN1C(=O)[C@H](CCCCN)NC(=O)[C@H](CCCCN)NC(=O)[C@H](CO)NC(=O)[C@H](CCC(=O)O)NC(=O)[C@H](CCCCN)NC(=O)[C@H](CCCNC(=N)N)NC(=O)[C@H](CCC(N)=O)NC(=O)[C@H](CCC(N)=O)NC(=O)[C@H](C)NC(=O)[C@H](CCCCN)NC(=O)[C@H](CCC(N)=O)NC(=O)[C@H](Cc1c[nH]cn1)NC(=O)[C@H](CCC(=O)O)NC(=O)[C@@H]1CCCN1C(=O)[C@H](CO)NC(=O)[C@H](CC(C)C)NC(=O)[C@H](Cc1ccccc1)NC(=O)[C@H](CO)NC(=O)[C@H](CO)NC(=O)CN)C(=O)N[C@@H](CCC(N)=O)C(=O)N1CCC[C@H]1C(=O)N[C@@H](CCCNC(=N)N)C(=O)O [Compound 4, reference compound] | – | EC50 [2]: > 1000 nM
